According to ChEMBL document CHEMBL3526141, “Characterization of human liver enzymes involved in the biotransformation of boceprevir, a hepatitis C virus protease inhibitor” (Drug Metab Dispos, 2011):

Assays:
Liver cytosol [1] = experiment: (§1) Drug metabolism in human liver cytosol at 20 uM assessed as (1R,2S,5S)-N-((2S,3R)-4-amino-1-cyclobutyl-3-hydroxy-4-oxobutan-2-yl)-3-((S)-2-(3-tert-butylureido)-3,3-dimethylbutanoyl)-6,6-dimethyl-3-azabicyclo[3.1.0]hexane-2-carboxamide formation in presence of quercetin by LC-MS/MS/FSA method; type: ADME
[2] = Drug excretion in human feces assessed as carbonyl reduction pathway related metabolites level; type: ADME; parameters: dosed compound name [14C]boceprevir
[3] = target: T1, Aldo-keto reductase family 1 member C3 (Homo sapiens, UniProt P42330); experiment: Activity of human recombinant AKR1C3 expressed in HEK293 cells assessed as (1R,2S,5S)-N-((2S,3R)-4-amino-1-cyclobutyl-3-hydroxy-4-oxobutan-2-yl)-3-((S)-2-(3-tert-butylureido)-3,3-dimethylbutanoyl)-6,6-dimethyl-3-azabicyclo[3.1.0]hexane-2-carboxamide formation per mg protein after 120 mins in presence of NADPH by LC-MS/MS/FSA method; type: ADME, cell-based; settings: hek293, 2 h
T1 sequence (P42330 whole entry): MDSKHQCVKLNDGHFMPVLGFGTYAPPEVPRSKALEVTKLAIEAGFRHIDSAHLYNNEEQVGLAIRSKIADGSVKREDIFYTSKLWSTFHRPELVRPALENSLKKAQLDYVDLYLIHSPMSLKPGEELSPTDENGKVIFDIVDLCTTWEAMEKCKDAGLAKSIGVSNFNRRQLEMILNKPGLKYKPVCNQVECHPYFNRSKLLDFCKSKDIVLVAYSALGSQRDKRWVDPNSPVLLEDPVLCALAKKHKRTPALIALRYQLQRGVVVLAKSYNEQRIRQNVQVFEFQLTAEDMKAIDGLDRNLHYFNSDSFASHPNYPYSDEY

Liver cytosol [4] = experiment: Drug metabolism in human liver cytosol at 20 uM assessed as (1R,2S,5S)-N-((2S,3R)-4-amino-1-cyclobutyl-3-hydroxy-4-oxobutan-2-yl)-3-((S)-2-(3-tert-butylureido)-3,3-dimethylbutanoyl)-6,6-dimethyl-3-azabicyclo[3.1.0]hexane-2-carboxamide formation in presence of allopurinol by LC-MS/MS/FSA method; type: ADME
Liver cytosol [5] = experiment: as §1, with “formation at 20 uM after 60 mins” for “formation”, “AKR inhibitor diazepam” for “quercetin”; type: ADME; settings: 1 h
[6] = Drug metabolism in human liver S9 fraction at 20 uM assessed as (1R,2S,5S)-N-((2S,3R)-4-amino-1-cyclobutyl-3-hydroxy-4-oxobutan-2-yl)-3-((S)-2-(3-tert-butylureido)-3,3-dimethylbutanoyl)-6,6-dimethyl-3-azabicyclo[3.1.0]hexane-2-carboxamide formation in presence of BNPP by LC-MS/MS/FSA method; type: ADME, subcellular; settings: s9, 20 µM
Liver cytosol [7] = experiment: as §1, with “formation at 20 uM after 60 mins” for “formation”, “AKR inhibitor diazepam” for “quercetin”; type: ADME; settings: 1 h; remark: listed apart in the source
Liver cytosol [8] = experiment: Drug metabolism in human liver cytosol at 20 uM assessed as (1R,2S,5S)-N-((2S,3R)-4-amino-1-cyclobutyl-3-hydroxy-4-oxobutan-2-yl)-3-((S)-2-(3-tert-butylureido)-3,3-dimethylbutanoyl)-6,6-dimethyl-3-azabicyclo[3.1.0]hexane-2-carboxamide formation in presence of mefenamic acid by LC-MS/MS/FSA method; type: ADME
[9] = Drug excretion in human feces; type: ADME; parameters: dosed compound name [14C]-SCH 534128
Liver cytosol [10] = experiment: Drug metabolism in human liver cytosol at 20 uM assessed as (1R,2S,5S)-N-((2S,3R)-4-amino-1-cyclobutyl-3-hydroxy-4-oxobutan-2-yl)-3-((S)-2-(3-tert-butylureido)-3,3-dimethylbutanoyl)-6,6-dimethyl-3-azabicyclo[3.1.0]hexane-2-carboxamide formation in presence of flufenamic acid by LC-MS/MS/FSA method; type: ADME
[11] = target: T2, Aldo-keto reductase family 1 member C2 (Homo sapiens, UniProt P52895); experiment: Drug metabolism in human recombinant AKR1C2 expressing HEK293 cells treated with 20 uM boceprevir assessed as 1 mM BNPP-mediated inhibition of AKR1C2-mediated metabolite formation after 120 mins in presence of NADPH by LC-MS/MS/FSA method; type: ADME, cell-based; parameters: interact cpd dose 1 mM; settings: hek293, 2 h
T2 sequence (P52895 whole entry): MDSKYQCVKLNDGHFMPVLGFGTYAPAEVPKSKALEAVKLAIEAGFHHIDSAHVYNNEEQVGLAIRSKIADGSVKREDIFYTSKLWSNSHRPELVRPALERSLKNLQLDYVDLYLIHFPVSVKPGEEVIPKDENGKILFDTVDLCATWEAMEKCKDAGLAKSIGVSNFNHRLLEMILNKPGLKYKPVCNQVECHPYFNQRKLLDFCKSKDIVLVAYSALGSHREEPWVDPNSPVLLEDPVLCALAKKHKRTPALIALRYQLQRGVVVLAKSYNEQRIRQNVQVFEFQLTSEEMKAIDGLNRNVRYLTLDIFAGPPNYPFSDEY

Liver cytosol [12] = experiment: Drug metabolism in human liver cytosol treated with 20 uM assessed as compound formation in presence of NADPH generating system by LC-MS/MS/FSA method; type: ADME
Cytochrome P450 1A1 = target: T3, Cytochrome P450 1A1 (Homo sapiens, UniProt P04798); experiment: Drug metabolism assessed as human […]-mediated compound formation from 5 uM [14C]boceprevir after 120 mins by LC-MS/FSA method relative to total [14C]boceprevir; type: ADME; settings: recombinant enzyme, 2 h
T3 sequence (P04798 whole entry): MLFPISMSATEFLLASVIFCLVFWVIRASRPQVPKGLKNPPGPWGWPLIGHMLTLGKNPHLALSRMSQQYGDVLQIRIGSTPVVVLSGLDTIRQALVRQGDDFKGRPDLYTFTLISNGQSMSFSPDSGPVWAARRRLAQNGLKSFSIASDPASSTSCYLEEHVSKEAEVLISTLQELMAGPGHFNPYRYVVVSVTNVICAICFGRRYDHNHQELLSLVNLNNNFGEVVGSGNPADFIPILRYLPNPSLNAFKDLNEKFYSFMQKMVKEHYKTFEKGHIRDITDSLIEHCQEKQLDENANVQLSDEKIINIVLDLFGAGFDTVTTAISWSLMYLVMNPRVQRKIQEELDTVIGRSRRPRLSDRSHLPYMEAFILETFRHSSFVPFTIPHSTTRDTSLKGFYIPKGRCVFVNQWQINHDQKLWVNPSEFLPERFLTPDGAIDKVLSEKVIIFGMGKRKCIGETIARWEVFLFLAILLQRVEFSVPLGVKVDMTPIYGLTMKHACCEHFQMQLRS

[13] = target: T1, Aldo-keto reductase family 1 member C3; experiment: Drug metabolism in human recombinant […] HEK293 cells treated with 20 uM boceprevir assessed as 100 uM diazepam-mediated inhibition of AKR1C3-mediated metabolite formation after 120 mins in presence of NADPH by LC-MS/MS/FSA method; type: ADME, cell-based; parameters: interact cpd dose 100 uM; settings: hek293, 2 h
[14] = target: T2, Aldo-keto reductase family 1 member C2; experiment: Drug metabolism in human recombinant AKR1C2 expressing HEK293 cells treated with 20 uM boceprevir assessed as 100 uM flufenamic acid-mediated inhibition of AKR1C2-mediated metabolite formation after 120 mins in presence of NADPH by LC-MS/MS/FSA method; type: ADME, cell-based; parameters: interact cpd dose 100 uM; settings: hek293, 2 h
[15] = Drug metabolism in human liver S9 fraction treated with 20 uM assessed as compound formation in presence of NADPH generating system by LC-MS/MS/FSA method; type: ADME, subcellular
Liver cytosol [16] = experiment: Drug metabolism in human liver cytosol at 20 uM assessed as (1R,2S,5S)-N-((2R,3R)-4-amino-1-cyclobutyl-3-hydroxy-4-oxobutan-2-yl)-3-((S)-2-(3-tert-butylureido)-3,3-dimethylbutanoyl)-6,6-dimethyl-3-azabicyclo[3.1.0]hexane-2-carboxamide formation at 20 uM after 60 mins in presence of AKR inhibitor diazepam by LC-MS/MS/FSA method; type: ADME; settings: 1 h

Row | Compound recovery (Liver cytosol [1]) | Radiolabel recovery [2] [%] | Vmax [3] [pmol/min] | Compound recovery (Liver cytosol [4]) | Compound recovery (Liver cytosol [5]) | Compound recovery [6] | Compound recovery (Liver cytosol [7]) | Compound recovery (Liver cytosol [8]) | Radiolabel recovery [9] | Compound recovery (Liver cytosol [10]) | inhibition (INH) [11] [%] | Compound recovery (Liver cytosol [12]) [%] | Compound recovery (Cytochrome P450 1A1) [%] | inhibition (INH) [13] [%] | inhibition (INH) [14] [%] | Compound recovery [15] [%] | Compound recovery (Liver cytosol [16]) | SMILES
1 | metabolite_not_detected | 22 | 639 | metabolite_detected | metabolite_not_detected | metabolite_not_detected | metabolite_not_detected | metabolite_not_detected | metabolite_not_detected | metabolite_not_detected | – | – | – | – | – | – | – | CC(C)(C)NC(=O)N[C@H](C(=O)N1C[C@H]2[C@@H]([C@H]1C(=O)NC(CC1CCC1)C(=O)C(N)=O)C2(C)C)C(C)(C)C (stereo partly drawn) [BOCEPREVIR]
2 | – | – | – | – | – | – | – | – | – | – | 82 | 68 | 0.57 | 80 | > 89 | 28 | – | CC(C)(C)NC(=O)N[C@H](C(=O)N1C[C@H]2[C@@H]([C@H]1C(=O)N[C@@H](CC1CCC1)[C@@H](O)C(N)=O)C2(C)C)C(C)(C)C
3 | – | – | – | – | – | – | – | – | – | – | – | – | 33.4 | – | – | – | metabolite_not_detected | CC(C)(C)NC(=O)N[C@H](C(=O)N1C[C@H]2[C@@H]([C@H]1C(=O)N[C@H](CC1CCC1)C(=O)C(N)=O)C2(C)C)C(C)(C)C
